pIC50: −log10 of the molar value. Where a name gives a salt, the structure may show the parent alone.
molecular target: T1, full-length human PKCι (Homo sapiens, UniProt P41743); assay: PKCι IC50 IMAP assay, full-length PKCι at 150 μM ATP; assay type: biochemical; conditions: read-out: IC50 in IMAP assay against full length PKCi at 150 μM ATP
T1 construct: Recombinant, full-length human PKCι expressed in Sf21 insect cells is also commercially available; purchased; host or cells: Sf21 insect cells
T1 sequence (P41743 1-596): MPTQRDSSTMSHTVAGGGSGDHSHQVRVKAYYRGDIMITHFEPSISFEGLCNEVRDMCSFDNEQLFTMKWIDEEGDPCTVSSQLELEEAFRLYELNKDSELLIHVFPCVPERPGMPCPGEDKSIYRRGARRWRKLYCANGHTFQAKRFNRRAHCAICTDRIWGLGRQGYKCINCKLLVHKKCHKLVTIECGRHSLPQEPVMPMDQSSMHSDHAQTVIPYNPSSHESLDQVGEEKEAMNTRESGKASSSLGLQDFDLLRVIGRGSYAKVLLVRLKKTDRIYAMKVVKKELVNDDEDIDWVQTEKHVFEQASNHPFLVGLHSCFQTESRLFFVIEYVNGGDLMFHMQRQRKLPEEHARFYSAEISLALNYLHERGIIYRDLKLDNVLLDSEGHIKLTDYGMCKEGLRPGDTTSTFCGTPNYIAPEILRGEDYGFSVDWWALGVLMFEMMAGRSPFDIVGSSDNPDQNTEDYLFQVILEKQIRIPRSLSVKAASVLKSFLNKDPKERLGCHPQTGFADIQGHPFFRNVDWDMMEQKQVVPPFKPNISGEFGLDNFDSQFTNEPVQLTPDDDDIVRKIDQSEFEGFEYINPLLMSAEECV
Method in brief: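 Dose-response IC50 values come from IMAP fluorescence polarisation after 60 min room-temperature turnover of 100 nM FAM peptide by ~15 pM insect-cell-expressed full-length PKCι at 150 μM ATP (5× KM^APP), normalised to no-compound and no-enzyme controls.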

Fc1ccc(F)c(Nc2cc(-c3nc(N4CCNCC4)c4c(Nc5c(F)ccc(F)c5F)cncc4n3)ccn2)c1F [Example 261, {4-Piperazin-1-yl-2-[2-(2,3,6-trifluoro-phenylamino)-pyridin-4-yl]-pyrido[3,4-d]pyrimidin-5-yl}-(2,3,6-trifluoro-phenyl)-amine] was tested. Which pIC50 did it give?
Its pIC50 is 6.00 to 7.00.

How did the pIC50 turn out when c1cc(-c2nc(N3CCNCC3)c3c(C4CC4)cncc3n2)cc(Nc2ccc3nonc3c2)n1 [Example 2116, Benzo[1,2,5]oxadiazol-5-yl-[4-(5-cyclopropyl-4-piperazin-1-yl-pyrido[3,4-d]pyrimidin-2-yl)-pyridin-2-yl]-amine] was run?
Its pIC50 is over 7.00.

FC(F)(F)COc1ccc(Nc2cc(-c3nc(N4CCNCC4)c4c(C5CC5)cncc4n3)ccn2)cc1 [Example 2150, [4-(5-Cyclopropyl-4-piperazin-1-yl-pyrido[3,4-d]pyrimidin-2-yl)-pyridin-2-yl]-[4-(2,2,2-trifluoro-ethoxy)-phenyl]-amine] was tested. Which pIC50 did it give?
The pIC50 was over 7.00.

With COc1cncc2nc(N3CCOCC3)nc(N3CCN[C@@H](CO)C3)c12 [Example 1005, [(R)-4-(5-Methoxy-2-morpholin-4-yl-pyrido[3,4-d]pyrimidin-4-yl)-piperazin-2-yl]-methanol] as the compound, how does the pIC50 read?
The pIC50 was 6.00 to 7.00.

With c1cc(-c2nc(N3CCNCC3)c3c(C4CC4)cncc3n2)cc(Nc2ccc3ccnn3c2)n1 [Example 563, [4-(5-Cyclopropyl-4-piperazin-1-yl-pyrido[3,4-d]pyrimidin-2-yl)-pyridin-2-yl]-pyrazolo[1,5-a]pyridin-6-yl-amine] as the compound, how does the pIC50 read?
Its pIC50 is over 7.00.

N[C@H](CNc1nc(-c2ccncc2)nc2c(-c3ccc(O)cc3)nccc12)Cc1ccccc1 [Example 91, 4-(4-{[(2S)-2-amino-3-phenylpropyl]-amino}-2-(pyridin-4-yl)pyrido[3,4-d]-pyrimidin-8-yl)phenol] was tested. Which pIC50 did it give?
Its pIC50 is 6.00 to 7.00.

O=C(O)Cc1ccc(Nc2cc(-c3nc(N4CCNCC4)c4c(C5CC5)cncc4n3)ccn2)cc1 [Example 709, {4-[4-(5-Cyclopropyl-4-piperazin-1-yl-pyrido[3,4-d]pyrimidin-2-yl)-pyridin-2-ylamino]-phenyl}-acetic acid] was tested. Which pIC50 did it give?
Its pIC50 is 6.00 to 7.00.

With Fc1cccnc1Nc1cc(-c2nc(N3CCNCC3)c3c(C4CC4)cncc3n2)ccn1 [Example 526, [4-(5-Cyclopropyl-4-piperazin-1-yl-pyrido[3,4-d]pyrimidin-2-yl)-pyridin-2-yl]-(3-fluoro-pyridin-2-yl)-amine] as the compound, how does the pIC50 read?
The pIC50 was over 7.00.

OC1CCN(c2nc(-c3ccnc4[nH]c5ccccc5c34)nc3cncc(C4CC4)c23)CC1 [Example 1254, 1-[5-cyclopropyl-2-(9H-pyrido[2,3-b]indol-4-yl)-pyrido[3,4-d]pyrimidin-4-yl]-piperidin-4-ol trifluoroacetic acid salt] was tested. Which pIC50 did it give?
The pIC50 was 6.00 to 7.00.

With Fc1cncc(F)c1Nc1cc(-c2nc(N3CCNCC3)c3c(C4CC4)cncc3n2)ccn1 [Example 705, [4-(5-Cyclopropyl-4-piperazin-1-yl-pyrido[3,4-d]pyrimidin-2-yl)-pyridin-2-yl]-(3,5-difluoro-pyridin-4-yl)-amine] as the compound, how does the pIC50 read?
The pIC50 was over 7.00.

CNc1cc(-c2nc(N3CCNCC3)c3c(OC)cncc3n2)ccn1 [Example 213, [4-(5-Methoxy-4-piperazin-1-yl-pyrido[3,4-d]pyrimidin-2-yl)-pyridin-2-yl]-methyl-amine] was tested. Which pIC50 did it give?
The pIC50 was 6.00 to 7.00.

How did the pIC50 turn out when c1cc(-c2nc(N3CCNCC3)c3c(C4CC4)cncc3n2)c2c(n1)NC1(CCCCC1)C2 [Example 1252, 4-(5-cyclopropyl-4-piperazin-1-yl-pyrido[3,4-d]pyrimidin-2-yl)spiro[1,3-dihydropyrrolo[2,3-b]pyridine-2,1′-cyclohexane]] was run?
The pIC50 was over 7.00.

With Fc1ccccc1C1(c2cc3c(-c4nc(N5CCNCC5)c5c(C6CC6)cncc5n4)ccnc3[nH]2)CC1 [Example 2009, 5-Cyclopropyl-2-{2-[1-(2-fluoro-phenyl)-cyclopropyl]-1H-pyrrolo[2,3-b]pyridin-4-yl}-4-piperazin-1-yl-pyrido[3,4-d]pyrimidine] as the compound, how does the pIC50 read?
The pIC50 was over 7.00.

COc1cncc2nc(-c3ccnc(Nc4ccccc4)c3)nc(N3CCC(O)C(O)C3)c12 (single isomer, unassigned) [Example 463, (3R,4S)-1-[5-Methoxy-2-(2-phenylamino-pyridin-4-yl)-pyrido[3,4-d]pyrimidin-4-yl]-piperidine-3,4-diol or (3S,4R)-1-[5-Methoxy-2-(2-phenylamino-pyridin-4-yl)-pyrido[3,4-d]pyrimidin-4-yl]-piperidine-3,4-diol] was tested. Which pIC50 did it give?
Its pIC50 is 5.00 to 6.00.

How did the pIC50 turn out when CS(=O)(=O)C[C@H]1CN(c2nc(-c3ccnc(NC(=O)C4CC4)c3)nc3cncc(C4CC4)c23)CCN1 [Example 773, Cyclopropanecar-boxylic acid {4-[5-cyclopropyl-4-((R)-3-methanesulfonyl-methyl-piperazin-1-yl)-pyrido[3,4-d]pyrimidin-2-yl]-pyridin-2-yl}-amide] was run?
Its pIC50 is 6.00 to 7.00.

How did the pIC50 turn out when Cc1ccc(F)cc1Nc1cc(-c2nc(N3CCNCC3)c3c(C4CC4)cncc3n2)ccn1 [Example 523, [4-(5-Cyclopropyl-4-piperazin-1-yl-pyrido[3,4-d]pyrimidin-2-yl)-pyridin-2-yl]-(5-fluoro-2-methyl-phenyl)-amine] was run?
The pIC50 was over 7.00.

How did the pIC50 turn out when COCc1cc2c(-c3nc(N4CCNCC4)c4c(C5CCC5)cncc4n3)ccnc2[nH]1 [Example 2080, 5-Cyclobutyl-2-(2-methoxymethyl-1H-pyrrolo[2,3-b]pyridin-4-yl)-4-piperazin-1-yl-pyrido[3,4-d]pyrimidine] was run?
Its pIC50 is over 7.00.

With CC(C)n1ccc(Nc2cc(-c3nc(N4CCNC(C)(C)C4)c4c(C5CC5)cncc4n3)ccn2)n1 [Example 2018, {4-[5-Cyclopropyl-4-(3,3-dimethyl-piperazin-1-yl)-pyrido[3,4-d]pyrimidin-2-yl]-pyridin-2-yl}-(1-isopropyl-1H-pyrazol-3-yl)-amine] as the compound, how does the pIC50 read?
The pIC50 was over 7.00.

Fc1cnc(F)c(Nc2cc(-c3nc(N4CCNCC4)c4c(C5CC5)cncc4n3)ccn2)c1 [Example 749, [4-(5-Cyclopropyl-4-piperazin-1-yl-pyrido[3,4-d]pyrimidin-2-yl)-pyridin-2-yl]-(2,5-difluoro-pyridin-3-yl)-amine] was tested. Which pIC50 did it give?
The pIC50 was over 7.00.

How did the pIC50 turn out when FC(F)(F)CN1CCC(Nc2cc(-c3nc(N4CCNCC4)c4c(C5CC5)cncc4n3)ccn2)CC1 [Example 814, [4-(5-Cyclopropyl-4-piperazin-1-yl-pyrido[3,4-d]pyrimidin-2-yl)-pyridin-2-yl]-[1-(2,2,2-trifluoro-ethyl)-piperidin-4-yl]-amine] was run?
Its pIC50 is over 7.00.

With COc1cncc2nc(-c3ccnc(NC(=O)Cc4cccc(C#N)c4)c3)nc(N3CCN(C)CC3)c12 [Example 404, 2-(3-Cyano-phenyl)-N-{4-[5-methoxy-4-(4-methyl-piperazin-1-yl)-pyrido[3,4-d]pyrimidin-2-yl]-pyridin-2-yl}-acetamide] as the compound, how does the pIC50 read?
Its pIC50 is 6.00 to 7.00.

With CN[C@H](CNc1nc(-c2ccncc2)nc2cnccc12)Cc1ccccc1 [Example 80, methyl[(2S)-1-phenyl-3-{[2-(pyridin-4-yl)pyrido[3,4-d]pyrimidin-4-yl]amino}propan-2-yl]amine] as the compound, how does the pIC50 read?
Its pIC50 is 6.00 to 7.00.

With COc1cncc2nc(-c3ccncc3)nc(N3CCC(N)(C(=O)Nc4ccccc4)C3)c12 (stereo not drawn) [Example 153, 3-Amino-1-(5-methoxy-2-pyridin-4-yl-pyrido[3,4-d]pyrimidin-4-yl)-pyrrolidine-3-carboxylic acid phenylamide] as the compound, how does the pIC50 read?
Its pIC50 is 5.00 to 6.00.

How did the pIC50 turn out when COc1cncc2nc(-c3ccnc(Nc4cccnc4)c3)nc(N3CCNCC3)c12 [Example 378, [4-(5-Methoxy-4-piperazin-1-yl-pyrido[3,4-d]pyrimidin-2-yl)-pyridin-2-yl]-pyridin-3-yl-amine] was run?
The pIC50 was over 7.00.

From patent US9914730B2, “Azaquinazoline inhibitors of Atypical protein Kinase C” (Ignyta, Inc., priority 2012, dated 2018)
